# Where two headings read alike, the source gives them in different places.
# Tests used:
# [1] = Study 1 (NCT03836599) safety: adverse events, laboratory, vital signs, ECG; assay type: in vivo, human; details: Study 1, up to 24 mg verinurad + 300 mg allopurinol
# From the text: (§1) Cohort 1 was randomized, double‐blind, and placebo‐controlled and consisted of 12 healthy Asian participants, of whom <50% were Chinese. Cohort 2 was open‐label, consisting of 9 healthy Chinese participants.
# (§2) Analysis of safety was based on adverse events (AEs), laboratory assessments (including hematology, clinical chemistry, urinalysis, and coagulation), vital signs (systolic and diastolic blood pressure, and pulse rate), electrocardiogram (ECG), and physical examination. AEs were coded using the Medical Dictionary for Regulatory Activities. In Study 1, a treatment‐emergent AE was defined as an AE with onset (start date/time) after the first dose of study drug in the run‐in period (day –7). In Study 2, AEs were recorded from the time the participant signed the informed consent through to the follow‐up visit. ECGs were obtained after the participant rested in the supine position. Digital ECG analysis in Study 1 was performed at the AstraZeneca ECG Center.
# (§3) Safety was assessed in the safety analysis set of each study, comprising all participants who received ≥1 dose of study drug. Continuous variables are summarized using descriptive statistics, and categorical variables are summarized as frequency and proportion.
# [2] = Study 2 (NCT02608710) safety: adverse events, laboratory, vital signs, ECG; assay type: in vivo, human
# Protocol: (§4) Study 2 was a Phase 1, randomized, open‐label study comprising of three parts. Parts 1 and 2 assessed the pharmacokinetics and pharmacodynamics of single and multiple doses of verinurad, respectively (Figure 1). Part 3 assessed the effect of food on the pharmacokinetics and pharmacodynamics of verinurad and is not reported further herein. In the single‐dose assessment, […] were randomized 1:1:1:1:1:1 into 1 of 6 treatment sequences with a single dose of 4.5, 6, or 12 mg verinurad, administered on days 1, 5, and 9 (Figure 1). In the multiple‐dose assessment, 8 participants received 12 mg verinurad QD on days 1 to 7.
# as §2, §3
# [3] = Study 1 plasma pharmacokinetics of verinurad, allopurinol and oxypurinol; assay type: in vivo, human; details: for Tmax: median (range); for Cmax / AUC: geometric mean (gCV%)
# Protocol: as §1
# (§5) In both studies, participants received verinurad capsules with an extended‐release profile. On the days of pharmacokinetic sampling, treatment was given in fasting state.
# (§6) Verinurad plasma samples were analyzed using similar methodologies as described by Shen et al.[13] with lower and upper limits of quantification of 0.100 ng/mL and 40.0 ng/mL, respectively.
# [4] = Study 2 plasma pharmacokinetics of verinurad; assay type: in vivo, human; details: healthy non-Asian participants; for Tmax: median (range); for half-life: read-out: t½λz (converted)
# Protocol: as §4, §5
# as §6, with “respectively. The ability to dilute overrange samples was also confirmed. […].” for “respectively.”
# (§7) Pharmacokinetics and pharmacodynamics were assessed in all participants who received ≥1 dose of study drug and had ≥1 corresponding assessment.
# [5] = system: serum uric acid (sUA) and urinary uric acid (uUA); experiment: Study 2 pharmacodynamics: serum and urinary uric acid; assay type: in vivo, human; details: healthy non-Asian participants
# Protocol: as §4
# Key pharmacodynamic parameters included time‐matched percentage change from baseline (day –1) at each timepoint in sUA concentration, maximum observed percentage change from baseline (time‐matched, day –1) in sUA concentration (Emax,CB) and time to Emax,CB, amount of UA recovered in urine (Aeur), and fractional excretion of UA (FEUA).
# as §7
# [6] = design: method as in PMID 29949102; details: cited from earlier work
# [7] = design: method as in PMID 29950814; details: cited from earlier work
# [8] = design: method as in PMID 30334639; details: patients with gout, 1 Japanese study and 1 Western study; cited from earlier work
# [9] = multiple-dose assessment, 12 mg verinurad QD (n = 8)
# [10] = single-dose assessment, 4.5 mg verinurad (n = 16)
# [11] = single-dose assessment, 6 mg verinurad (n = 16)
# [12] = single-dose assessment, 12 mg verinurad (n = 16)
# [13] = healthy Asian participants, 24 mg verinurad + 300 mg allopurinol QD, Day 7
# [14] = healthy Chinese participants, 12 mg verinurad + 300 mg allopurinol day 1 and QD days 3-9, Day 9, arithmetic mean (SD)
# [15] = healthy Chinese participants, 12 mg verinurad + 300 mg allopurinol, Day 1, arithmetic mean (SD)
# [16] = multiple-dose assessment 12 mg verinurad QD, Day 7, geometric mean (gCV%)
# [17] = single dose 6 mg verinurad, geometric mean (gCV%)
# [18] = single dose 12 mg verinurad, geometric mean (gCV%)
# [19] = 12 mg verinurad QD, day 1, 3 to 6 h post-dose
# [20] = 12 mg verinurad QD, day 7, 3 to 6 h post-dose
# [21] = single dose 4.5 mg verinurad, 3 to 6 h post-dose
# [22] = single dose 6 mg verinurad, 3 to 6 h post-dose
# [23] = single dose 12 mg verinurad, 3 to 6 h post-dose
# [24] = single dose 15 mg verinurad, moderate renal impairment
# [25] = single dose 15 mg verinurad, severe renal impairment
# [26] = single dose, mild renal impairment
# [27] = healthy Japanese male participants, day 6 after QD dosing with 15 mg verinurad modified-release formulation
compound,measurement,setting,value
CC(C)(Sc1ccncc1-c1ccc(C#N)c2ccccc12)C(=O)O [verinurad],tolerability,[1],well tolerated
same,"diarrhea, participants","[2]; human, in vivo",2
same,"findings in laboratory parameters, vital signs, 12-lead ECG variables",[2]; in vivo,No clinically significant findings
same,"Death, Events",[2]; [9],0 Events
same,"Death, n (%)",[2]; [9],0 n (%)
same,"Death, Events",[2]; [10],0 Events
same,"Death, n (%)",[2]; [10],0 n (%)
same,"Death, Events",[2]; [11],0 Events
same,"Death, n (%)",[2]; [11],0 n (%)
same,"Death, Events",[2]; [12],0 Events
same,"Death, n (%)",[2]; [12],0 n (%)
same,CL/F,"[3]; healthy Asian participants, 24 mg verinurad + 300 mg allopurinol QD, Day 1, arithmetic mean (SD)",48.6 (11.3) L/h
same,Tmax,"[3]; healthy Asian participants, 24 mg verinurad + 300 mg allopurinol QD, Day 1",5.00 (4.98–6.02) h
same,CL/F,"[3]; healthy Asian participants, 24 mg verinurad + 300 mg allopurinol QD, Day 7, arithmetic mean (SD)",50.9 (9.01) L/h
same,Cmax,[3]; [13],73.6 (29.0) ng/mL
same,Tmax,[3]; [13],5.00 (4.00–6.00) h
same,CL/F,[3]; [14],47.9 (17.2) L/h
same,t½λz,[3]; [14],6.27 (0.647) h
same,CL/F,[3]; [15],43.4 (16.2) L/h
same,t½λz,[3]; [15],12.9 (3.08) h
same,Tmax,"[3]; healthy Chinese participants, 12 mg verinurad + 300 mg allopurinol, Day 1",5.00 (4.00–6.00) h
same,half-life,"[3]; human, plasma, oral, healthy Asian participants, 24 mg verinurad + 300 mg allopurinol QD, Day 1, arithmetic mean (SD), read-out: t½λz (converted)",5.98 h
same,AUC,"[3]; human, plasma, oral, healthy Asian participants, 24 mg verinurad + 300 mg allopurinol QD, Day 1, read-out: AUC",506 ng·h/mL
same,AUC,"[3]; human, plasma, oral, healthy Asian participants, 24 mg verinurad + 300 mg allopurinol QD, Day 1, read-out: AUCτ",415 ng·h/mL
same,Cmax,"[3]; human, plasma, oral, healthy Asian participants, 24 mg verinurad + 300 mg allopurinol QD, Day 1, read-out: Cmax",71.2 ng/mL
same,AUC,"[3]; human, plasma, oral, healthy Asian participants, 24 mg verinurad + 300 mg allopurinol QD, Day 7, read-out: AUCτ",478 ng·h/mL
same,AUC,"[3]; human, plasma, oral, healthy Chinese participants, 12 mg verinurad + 300 mg allopurinol day 1 and QD days 3-9, Day 9, read-out: AUCτ",264 ng·h/mL
same,Cmax,"[3]; human, plasma, oral, healthy Chinese participants, 12 mg verinurad + 300 mg allopurinol day 1 and QD days 3-9, Day 9, read-out: Cmax",42 ng/mL
same,Tmax,"[3]; human, plasma, oral, healthy Chinese participants, 12 mg verinurad + 300 mg allopurinol day 1 and QD days 3-9, Day 9, read-out: tmax",5.5 h
same,AUC,"[3]; human, plasma, oral, healthy Chinese participants, 12 mg verinurad + 300 mg allopurinol, Day 1, read-out: AUC",295 ng·h/mL
same,AUC,"[3]; human, plasma, oral, healthy Chinese participants, 12 mg verinurad + 300 mg allopurinol, Day 1, read-out: AUCτ",226 ng·h/mL
same,Cmax,"[3]; human, plasma, oral, healthy Chinese participants, 12 mg verinurad + 300 mg allopurinol, Day 1, read-out: Cmax",47.6 ng/mL
same,CL/F,"[4]; multiple-dose assessment 12 mg verinurad QD, Day 1, geometric mean (gCV%)",52.2 (20.2) L/h
same,Tmax,"[4]; multiple-dose assessment 12 mg verinurad QD, Day 1",5.00 (2.00–6.00) h
same,CL/F,[4]; [16],44.2 (27.3) L/h
same,t½λz,[4]; [16],10.9 (19.1) h
same,CL/F,"[4]; single dose 4.5 mg verinurad, geometric mean (gCV%)",51.8 (27.9) L/h
same,Tmax,[4]; single dose 4.5 mg verinurad,4.00 (2.00–6.00) h
same,CL/F,[4]; [17],58.8 (40.5) L/h
same,Cmax,[4]; [17],13.4 (67.6) ng/mL
same,Tmax,[4]; single dose 6 mg verinurad,4.00 (2.00–6.05) h
same,CL/F,[4]; [18],58.3 (44.4) L/h
same,t½λz,[4]; [18],12.2 (67.7) h
same,Tmax,[4]; single dose 12 mg verinurad,4.00 (2.00–6.00) h
same,AUC,"[4]; human, plasma, oral, 4.5 mg, single dose 4.5 mg verinurad, geometric mean (gCV%), read-out: AUC",86.8 ng·h/mL
same,AUC,"[4]; human, plasma, oral, 4.5 mg, single dose 4.5 mg verinurad, geometric mean (gCV%), read-out: AUCτ",68.1 ng·h/mL
same,Cmax,"[4]; human, plasma, oral, 4.5 mg, single dose 4.5 mg verinurad, geometric mean (gCV%), read-out: Cmax",11.8 ng/mL
same,AUC,"[4]; human, plasma, oral, 6 mg, single dose 6 mg verinurad, geometric mean (gCV%), read-out: AUC",102 ng·h/mL
same,AUC,"[4]; human, plasma, oral, 6 mg, single dose 6 mg verinurad, geometric mean (gCV%), read-out: AUCτ",80.8 ng·h/mL
same,AUC,"[4]; human, plasma, oral, 12 mg, multiple-dose assessment 12 mg verinurad QD, Day 1, geometric mean (gCV%), read-out: AUC",230 ng·h/mL
same,AUC,"[4]; human, plasma, oral, 12 mg, multiple-dose assessment 12 mg verinurad QD, Day 1, geometric mean (gCV%), read-out: AUCτ",209 ng·h/mL
same,Cmax,"[4]; human, plasma, oral, 12 mg, multiple-dose assessment 12 mg verinurad QD, Day 1, geometric mean (gCV%), read-out: Cmax",29.9 ng/mL
same,AUC,"[4]; human, plasma, oral, 12 mg, multiple-dose assessment 12 mg verinurad QD, Day 7, geometric mean (gCV%), read-out: AUCτ",271 ng·h/mL
same,Cmax,"[4]; human, plasma, oral, 12 mg, multiple-dose assessment 12 mg verinurad QD, Day 7, geometric mean (gCV%), read-out: Cmax",36.3 ng/mL
same,AUC,"[4]; human, plasma, oral, 12 mg, single dose 12 mg verinurad, geometric mean (gCV%), read-out: AUC",206 ng·h/mL
same,AUC,"[4]; human, plasma, oral, 12 mg, single dose 12 mg verinurad, geometric mean (gCV%), read-out: AUCτ",168 ng·h/mL
same,Cmax,"[4]; human, plasma, oral, 12 mg, single dose 12 mg verinurad, geometric mean (gCV%), read-out: Cmax",28.6 ng/mL
same,AUC,"[4]; human, plasma, oral, 12 mg, single dose of verinurad 4.5, 6, or 12 mg, read-out: geometric mean AUCτ, range over doses",68.1 to 168 ng·h/mL
same,Cmax,"[4]; human, plasma, oral, 12 mg, single dose of verinurad 4.5, 6, or 12 mg, read-out: geometric mean Cmax, range over doses",11.8 to 28.6 ng/mL
same,half-life,"[4]; human, plasma, oral, multiple-dose assessment 12 mg verinurad QD, Day 1, geometric mean (gCV%)",7.15 h
same,Tmax,"[4]; human, plasma, oral, multiple-dose assessment 12 mg verinurad QD, Day 7, read-out: tmax",6 h
same,half-life,"[4]; human, plasma, oral, single dose 4.5 mg verinurad, geometric mean (gCV%)",12.7 h
same,half-life,"[4]; human, plasma, oral, single dose 6 mg verinurad, geometric mean (gCV%)",13.6 h
same,"tEmax,CB, mean (SD)","[5]; 12 mg verinurad QD, Day 1",9.0 (1.0) hour
same,"tEmax,CB, mean (SD)","[5]; 12 mg verinurad QD, Day 7",7.0 (3.0) hour
same,"mean Aeur at peak, higher compared with day –1",[5]; [19],353%
same,mean FEUA at peak,[5]; [19],33.3%
same,"mean Aeur at peak, higher compared with day –1",[5]; [20],81.3%
same,mean FEUA at peak,[5]; [20],31.2%
same,"tEmax,CB, mean (SD)",[5]; single dose 4.5 mg verinurad,8.0 (2.1) hour
same,"mean Aeur at peak, higher compared with day –1",[5]; [21],219%
same,mean FEUA at peak,[5]; [21],21.5%
same,"tEmax,CB, mean (SD)",[5]; single dose 6 mg verinurad,8.0 (2.0) hour
same,"mean Aeur at peak, higher compared with day –1",[5]; [22],267%
same,mean FEUA at peak,[5]; [22],24.8%
same,"tEmax,CB, mean (SD)",[5]; single dose 12 mg verinurad,9.0 (1.5) hour
same,"mean Aeur at peak, higher compared with day –1",[5]; [23],338%
same,mean FEUA at peak,[5]; [23],33.3%
same,AUC increase compared with normal renal function,[6]; [24],148%
same,Cmax increase compared with normal renal function,[6]; [24],73%
same,AUC increase compared with normal renal function,[6]; [25],130%
same,Cmax increase compared with normal renal function,[6]; [25],128%
same,AUC increase compared with normal renal function,[6]; [26],24%
same,Cmax increase compared with normal renal function,[6]; [26],53%
same,accumulation for AUC,[7]; after QD doses,1.3 fold
same,accumulation for Cmax,[7]; after QD doses,~ 1.2 fold
same,AUCτ,[7]; [27],239 ng·h/mL
same,Cmax,[7]; [27],38.2 ng/mL
same,"verinurad exposure, higher than in Western patients",[8],> 2 fold

# Source: article PMC9121888 (Pharmacology Research & Perspectives, 2022)
